Our source for the IC50 values is ChEMBL document CHEMBL4417633, “Inhibitory polypeptides specific to WNT inhibitors” (2017).

Test [1] addresses T1, Dickkopf WNT-signaling pathway inhibitor 1 (Rattus norvegicus, UniProt A6I0Z0).
T1 sequence (A6I0Z0 whole entry): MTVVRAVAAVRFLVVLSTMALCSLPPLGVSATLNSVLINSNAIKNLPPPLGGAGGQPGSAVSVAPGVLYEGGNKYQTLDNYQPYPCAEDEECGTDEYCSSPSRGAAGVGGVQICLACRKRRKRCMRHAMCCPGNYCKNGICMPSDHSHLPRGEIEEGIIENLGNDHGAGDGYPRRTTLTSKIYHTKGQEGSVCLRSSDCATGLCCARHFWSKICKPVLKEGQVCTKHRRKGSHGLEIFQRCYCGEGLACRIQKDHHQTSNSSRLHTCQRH
Briefly: Inhibition of biotin-labeled rat recombinant DKK1 assessed as reduction in DKK1 interaction with LRP-6/Fc incubated overnight by chemiluminescence based Alpha-screen assay.

In test [2] the target is T2, Dickkopf-related protein 1 (Homo sapiens, UniProt O94907).
T2 sequence (O94907 whole entry): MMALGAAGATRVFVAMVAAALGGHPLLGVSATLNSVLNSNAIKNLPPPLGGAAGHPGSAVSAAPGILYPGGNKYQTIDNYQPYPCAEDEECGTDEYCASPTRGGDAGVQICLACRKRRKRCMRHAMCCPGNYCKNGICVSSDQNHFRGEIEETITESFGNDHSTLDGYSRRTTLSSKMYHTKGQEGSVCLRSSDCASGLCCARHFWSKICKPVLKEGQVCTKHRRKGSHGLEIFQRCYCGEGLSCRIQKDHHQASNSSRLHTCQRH
As to the kind of experiment: Inhibition of biotin-labeled human recombinant DKK1 assessed as reduction in DKK1 interaction with LRP-6/Fc incubated overnight by chemiluminescence based Alpha-screen assay.

Where a SMILES comes first, the peptide text is derived from it.

With `CC[C@H](C)[C@H](NC(=O)[C@H](CC(=O)O)NC(=O)CNC(=O)[C@H](CC(=O)O)NC(=O)[C@H](CS)NC(=O)[C@H](CC(C)C)NC(=O)[C@H](Cc1ccccc1)NC(=O)[C@H](CO)NC(=O)[C@H](Cc1ccccc1)NC(=O)[C@@H]1CCCN1C(=O)[C@H](Cc1ccccc1)NC(=O)[C@H](CS)NC(=O)[C@@H](NC(=O)[C@H](CCCCN)NC(=O)[C@H](CC(=O)O)NC(=O)[C@H](C)NC(=O)[C@H](CS)NC(=O)[C@H](CCSC)NC(=O)[C@H](Cc1ccccc1)NC(=O)[C@H](CCC(=O)O)NC(=O)[C@H](CC(N)=O)NC(=O)[C@H](CCC(N)=O)NC(=O)[C@@H]1CCCN1C(=O)[C@@H](N)CS)[C@@H](C)O)C(=O)N[C@@H](CC(=O)O)C(=O)N[C@@H](CS)C(=O)N[C@@H](Cc1ccc(O)cc1)C(=O)N[C@@H](CC(=O)O)C(=O)NCC(=O)N[C@@H](CO)C(=O)N[C@@H](CC(=O)O)C(=O)N[C@@H](CCC(=O)O)C(=O)N[C@@H](C)C(=O)N[C@@H](Cc1ccc(O)cc1)C(=O)N[C@@H](CS)C(=O)N1CCC[C@H]1C(=O)N[C@@H](CO)C(=O)N[C@@H](CCCNC(=N)N)C(=O)N[C@H](C(=O)O)[C@@H](C)O` (H-CPQNEFMCADKTCFPFSFLCDGDIDCYDGSDEAYCPSRT-OH), the half-maximal inhibitory concentration (IC50) in test [1] and in test [2] was at most 1 nM throughout.

`CC[C@H](C)[C@H](NC(=O)[C@H](CCCCN)NC(=O)[C@H](CC(=O)O)NC(=O)[C@@H]1CCCN1C(=O)[C@H](CS)NC(=O)[C@H](CCSC)NC(=O)[C@H](Cc1ccccc1)NC(=O)[C@H](CCC(=O)O)NC(=O)[C@H](CC(N)=O)NC(=O)[C@H](CO)NC(=O)[C@@H]1CCCN1C(=O)[C@@H](N)CS)C(=O)N[C@@H](CS)C(=O)N[C@@H](Cc1ccccc1)C(=O)N1CCC[C@H]1C(=O)N[C@@H](CC(C)C)C(=O)N[C@@H](CO)C(=O)N[C@@H](Cc1ccccc1)C(=O)N[C@@H](CC(C)C)C(=O)N[C@@H](CS)C(=O)N[C@@H](CC(=O)O)C(=O)NCC(=O)N[C@@H](CCC(=O)O)C(=O)N[C@@H](CC(N)=O)C(=O)N[C@@H](CC(=O)O)C(=O)N[C@@H](CS)C(=O)N[C@@H](CCC(=O)O)C(=O)N[C@@H](CC(=O)O)C(=O)NCC(=O)N[C@@H](CO)C(=O)N[C@@H](CC(=O)O)C(=O)N[C@@H](CCC(=O)O)C(=O)N[C@@H](CC(=O)O)C(=O)N[C@@H](Cc1ccc(O)cc1)C(=O)N[C@@H](CS)C(=O)N1CCC[C@H]1C(=O)N[C@@H](CO)C(=O)N[C@@H](CCCNC(=N)N)C(=O)N[C@H](C(=O)O)[C@@H](C)O` (H-CPSNEFMCPDKICFPLSFLCDGENDCEDGSDEDYCPSRT-OH): the IC50 in test [1] and in test [2] was at most 1 nM throughout.

Take `CSCC[C@H](NC(=O)[C@@H]1CCCN1C(=O)[C@H](Cc1ccc(O)cc1)NC(=O)[C@H](CS)NC(=O)[C@H](Cc1cnc[nH]1)NC(=O)[C@H](CC(N)=O)NC(=O)[C@H](CC(C)C)NC(=O)[C@H](CC(N)=O)NC(=O)CNC(=O)[C@H](CS)NC(=O)[C@H](CCC(N)=O)NC(=O)[C@H](Cc1ccccc1)NC(=O)[C@H](Cc1ccc(O)cc1)NC(=O)[C@H](CO)NC(=O)[C@H](C)NC(=O)[C@@H]1CCCN1C(=O)[C@@H](N)CS)C(=O)N[C@@H](CCC(=O)O)C(=O)N[C@@H](Cc1c[nH]c2ccccc12)C(=O)N[C@@H](CCCNC(=N)N)C(=O)N[C@@H](CS)C(=O)N[C@@H](CC(=O)O)C(=O)NCC(=O)N[C@@H](Cc1ccccc1)C(=O)N[C@@H](CCC(N)=O)C(=O)N[C@@H](CC(=O)O)C(=O)N[C@@H](CS)C(=O)N[C@H](C(=O)N[C@@H](CC(=O)O)C(=O)NCC(=O)N[C@@H](CO)C(=O)N[C@@H](CC(=O)O)C(=O)N[C@@H](CCC(=O)O)C(=O)N[C@@H](CCCCN)C(=O)NCC(=O)N[C@@H](CS)C(=O)N1CCC[C@H]1C(=O)N[C@@H](Cc1ccc(O)cc1)C(=O)N[C@@H](CCCNC(=N)N)C(=O)N[C@H](C(=O)O)[C@@H](C)O)C(C)C` (H-CPASYFQCGNLNHCYPMEWRCDGFQDCVDGSDEKGCPYRT-OH): the IC50 in test [1] and in test [2] was at most 1 nM in each case.

Regarding `CSCC[C@H](NC(=O)[C@@H]1CCCN1C(=O)[C@H](Cc1ccc(O)cc1)NC(=O)[C@H](CS)NC(=O)[C@H](Cc1cnc[nH]1)NC(=O)[C@H](CCCCN)NC(=O)[C@H](CC(N)=O)NC(=O)[C@H](Cc1cnc[nH]1)NC(=O)[C@H](CCCNC(=N)N)NC(=O)[C@H](CS)NC(=O)[C@H](CCC(N)=O)NC(=O)[C@H](Cc1ccccc1)NC(=O)[C@H](Cc1ccc(O)cc1)NC(=O)[C@H](CO)NC(=O)[C@H](C)NC(=O)[C@@H]1CCCN1C(=O)[C@@H](N)CS)C(=O)N[C@@H](CCC(=O)O)C(=O)N[C@@H](Cc1c[nH]c2ccccc12)C(=O)N[C@@H](CCCNC(=N)N)C(=O)N[C@@H](CS)C(=O)N[C@@H](CC(=O)O)C(=O)NCC(=O)N[C@@H](Cc1ccccc1)C(=O)N1CCC[C@H]1C(=O)N[C@@H](CC(=O)O)C(=O)N[C@@H](CS)C(=O)N[C@@H](CCC(=O)O)C(=O)N[C@@H](CC(=O)O)C(=O)NCC(=O)N[C@@H](CO)C(=O)N[C@@H](CC(=O)O)C(=O)N[C@@H](CCC(=O)O)C(=O)N[C@@H](CC(C)C)C(=O)N[C@@H](CO)C(=O)N[C@@H](CS)C(=O)N1CCC[C@H]1C(=O)N[C@@H](Cc1ccc(O)cc1)C(=O)N[C@@H](CCCNC(=N)N)C(=O)N[C@H](C(=O)O)[C@@H](C)O` (H-CPASYFQCRHNKHCYPMEWRCDGFPDCEDGSDELSCPYRT-OH), the IC50 in test [1] and in test [2] was at most 1 nM throughout.

Turning to `CSCC[C@H](NC(=O)[C@H](CS)NC(=O)[C@H](CCC(N)=O)NC(=O)[C@H](Cc1ccccc1)NC(=O)[C@H](Cc1ccc(O)cc1)NC(=O)[C@H](CO)NC(=O)[C@H](C)NC(=O)[C@@H]1CCCN1C(=O)[C@@H](N)CS)C(=O)N[C@@H](CC(N)=O)C(=O)N[C@@H](Cc1cnc[nH]1)C(=O)N[C@@H](CC(N)=O)C(=O)N[C@@H](Cc1cnc[nH]1)C(=O)N[C@@H](CS)C(=O)N[C@@H](Cc1ccc(O)cc1)C(=O)N1CCC[C@H]1C(=O)N[C@@H](CCSC)C(=O)N[C@@H](CCC(=O)O)C(=O)N[C@@H](Cc1c[nH]c2ccccc12)C(=O)N[C@@H](CCCNC(=N)N)C(=O)N[C@@H](CS)C(=O)N[C@@H](CC(=O)O)C(=O)NCC(=O)N[C@@H](Cc1ccccc1)C(=O)N1CCC[C@H]1C(=O)N[C@@H](CC(=O)O)C(=O)N[C@@H](CS)C(=O)N[C@@H](CCC(=O)O)C(=O)N[C@@H](CC(=O)O)C(=O)NCC(=O)N[C@@H](CO)C(=O)N[C@@H](CC(=O)O)C(=O)N[C@@H](CCC(=O)O)C(=O)N[C@@H](CCCCN)C(=O)NCC(=O)N[C@@H](CS)C(=O)N1CCC[C@H]1C(=O)N[C@@H](Cc1ccc(O)cc1)C(=O)N[C@@H](CCCNC(=N)N)C(=O)N[C@H](C(=O)O)[C@@H](C)O` (H-CPASYFQCMNHNHCYPMEWRCDGFPDCEDGSDEKGCPYRT-OH), the IC50 in test [1] and in test [2] was at most 1 nM in each case.

For the compound `CSCC[C@H](NC(=O)[C@@H]1CCCN1C(=O)[C@H](Cc1ccc(O)cc1)NC(=O)[C@H](CS)NC(=O)[C@H](Cc1cnc[nH]1)NC(=O)[C@H](CC(N)=O)NC(=O)[C@H](CC(C)C)NC(=O)[C@H](Cc1cnc[nH]1)NC(=O)[C@H](CCCNC(=N)N)NC(=O)[C@H](CS)NC(=O)[C@H](CCCNC(=N)N)NC(=O)[C@H](Cc1ccccc1)NC(=O)[C@H](Cc1ccc(O)cc1)NC(=O)[C@H](CO)NC(=O)[C@@H](NC(=O)[C@@H]1CCCN1C(=O)[C@@H](N)CS)C(C)C)C(=O)N[C@@H](CCC(=O)O)C(=O)N[C@@H](Cc1c[nH]c2ccccc12)C(=O)N[C@@H](CCCNC(=N)N)C(=O)N[C@@H](CS)C(=O)N[C@@H](CC(=O)O)C(=O)NCC(=O)N[C@@H](Cc1ccccc1)C(=O)N[C@@H](CC(C)C)C(=O)N[C@@H](CC(=O)O)C(=O)N[C@@H](CS)C(=O)N[C@H](C(=O)N[C@@H](CC(=O)O)C(=O)NCC(=O)N[C@@H](CO)C(=O)N[C@@H](CC(=O)O)C(=O)N[C@@H](CCC(=O)O)C(=O)N[C@@H](CCC(=O)O)C(=O)NCC(=O)N[C@@H](CS)C(=O)N1CCC[C@H]1C(=O)N[C@@H](Cc1ccc(O)cc1)C(=O)N[C@@H](CCCNC(=N)N)C(=O)N[C@H](C(=O)O)[C@@H](C)O)C(C)C` (H-CPVSYFRCRHLNHCYPMEWRCDGFLDCVDGSDEEGCPYRT-OH), the IC50 in test [1] and in test [2] was at most 1 nM each time.

As to `CSCC[C@H](NC(=O)[C@@H]1CCCN1C(=O)[C@H](Cc1ccc(O)cc1)NC(=O)[C@H](CS)NC(=O)[C@H](Cc1cnc[nH]1)NC(=O)[C@H](CC(N)=O)NC(=O)[C@H](Cc1cnc[nH]1)NC(=O)[C@H](CC(N)=O)NC(=O)[C@H](CCCNC(=N)N)NC(=O)[C@H](CS)NC(=O)[C@H](CCCNC(=N)N)NC(=O)[C@H](Cc1ccccc1)NC(=O)[C@H](Cc1ccc(O)cc1)NC(=O)[C@H](CO)NC(=O)[C@H](C)NC(=O)[C@@H]1CCCN1C(=O)[C@@H](N)CS)C(=O)N[C@@H](CCC(=O)O)C(=O)N[C@@H](Cc1c[nH]c2ccccc12)C(=O)N[C@@H](CCCNC(=N)N)C(=O)N[C@@H](CS)C(=O)N[C@@H](CC(=O)O)C(=O)NCC(=O)N[C@@H](Cc1ccccc1)C(=O)N[C@@H](CC(=O)O)C(=O)N[C@@H](CC(=O)O)C(=O)N[C@@H](CS)C(=O)N[C@@H](CCC(=O)O)C(=O)N[C@@H](CC(=O)O)C(=O)NCC(=O)N[C@@H](CO)C(=O)N[C@@H](CC(=O)O)C(=O)N[C@@H](CCC(=O)O)C(=O)N[C@@H](CCC(N)=O)C(=O)NCC(=O)N[C@@H](CS)C(=O)N1CCC[C@H]1C(=O)N[C@@H](Cc1ccc(O)cc1)C(=O)N[C@@H](CCCNC(=N)N)C(=O)N[C@H](C(=O)O)[C@@H](C)O` (H-CPASYFRCRNHNHCYPMEWRCDGFDDCEDGSDEQGCPYRT-OH), the concentration for half-maximal inhibition (IC50) in test [1] and in test [2] was at most 1 nM each time.
